The subject of experiment [1] is SARS-CoV-2. Put plainly: Selectivity ratio of EC50 for nirmatrelvir-resistant SARS-CoV-2 harboring rL50F/E166A/L167F mutant infected in human Caco-2 cells expressing hTMPRSS/hACE2 to EC50 for wild-type SARS-CoV-2 WA1 infected in human Caco-2 cells expressing hTMPRSS/hACE2. The experiment is classed as functional.
For experiment [2], the system named is SARS-CoV-2. Briefly: Antiviral activity against nirmatrelvir-resistant SARS-CoV-2 harboring rL50F/E166A/L167F mutant infected in human Caco-2 cells expressing hTMPRSS/hACE2 incubated for 48 hrs in presence of CP-100356 by crystal violet staining based analysis. The class given is functional, organism-based, Severe acute respiratory syndrome coronavirus 2.

With `CC(C)(C)[C@H](NC(=O)C(F)(F)F)C(=O)N1C[C@H]2[C@@H]([C@H]1C(=O)N[C@H](C#N)C[C@@H]1CCNC1=O)C2(C)C`, the “Ratio EC50” value in the experiment with SARS-CoV-2 [1] turned out to be 14.8. Further, the concentration for a half-maximal effect (EC50) with SARS-CoV-2 [2] came out at 501 nM.

As usually defined, the EC50 is the concentration giving half of the maximal effect.

The record behind these values is ChEMBL document CHEMBL6092219, “Structure-Based Design of Covalent SARS-CoV-2 Papain-like Protease Inhibitors” (J Med Chem, 2024).
